{"source": "patent US20140012041A1", "about": "“METHOD FOR PRODUCING LACTATE” (TORAY INDUSTRIES, INC., priority 2010, published 2014)", "test": "Concentration of lactic acid fermentation culture medium with reverse osmosis membrane at 50° C. until calcium lactate precipitates", "conditions": "no calcium formate added", "protocol": "While the recovered concentrate was incubated at 50° C., the concentrate was filtered by suction filtration through Qualitative Filter Paper No. 2 (manufactured by [sequence]) to remove the precipitated calcium lactate crystals."}
{"molecule": "CC(O)C(=O)[O-].CC(O)C(=O)[O-].[Ca+2]", "note": "(stereo not drawn) [calcium lactate]", "values": [{"measurement": "concentration of calcium lactate at which precipitation was found", "setting": "D-lactic acid fermentation medium (SL strain)", "value": 12.5, "unit": "% by weight"}, {"measurement": "concentration of calcium lactate at which precipitation was found", "setting": "L-lactic acid fermentation medium (LC strain)", "value": 12.8, "unit": "% by weight"}, {"measurement": "concentration of calcium lactate at which precipitation was found", "setting": "L-lactic acid fermentation medium (yeast HI003 strain)", "value": 12.0, "unit": "% by weight"}]}
